# Assay results published in patent US5049637A, “1,2,3,4,10,14b-hexahydrodibenzo[c,f]pyrazino-[1,2-a]azepino derivatives and 10-aza, 10-oxa and 10-thia analogues” (Monash University, priority 1987, dated 1991).
# Where a name gives a salt, the structure may show the parent alone.
# What was measured:
# [1] = test system: rat isolated stomach strip (5-hydroxytryptamine-induced contractions); assay: Contractions of rat isolated stomach strip caused by 5-hydroxytryptamine
# Experimental: (§1) The compound of Example 2 was found in low concentrations to inhibit contractions of the guinea-pig isolated ileum and rat isolated stomach strip caused by histamine and 5-hydroxytryptamine respectively. […] Concomitantly, the depressor effects of histamine were blocked, as were the pressor effects of 5-hydroxytryptamine for over 30 minutes. The pressor effects of 5-hydroxytryptamine in anaesthetised and pithed rats were inhibited by intravenous doses of 0.3-1.0 mg/kg body weight. Slightly higher doses reduced the bradycardia and the depressor response (the Bezold-Jarisch reflex mediated by 5-HT3 receptors) to 5-hydroxytryptamine in anaesthetised rats. The drug inhibited oedema in the rat paw caused by intraplantar 5-hydroxytryptamine. […] In mice it inhibited diarrhoea caused by L-5-hydroxytryptophan. In guinea pigs, intravenous doses of 0.03 mg/kg and above reduced the bronchoconstrictor effects of histamine and 5-hydroxytryptamine.
# [2] = test system: bronchoconstrictor effects of histamine and 5-hydroxytryptamine; assay: Histamine and 5-hydroxytryptamine induced bronchoconstriction in guinea pigs; assay type: in vivo, guinea pig; conditions: Cavia porcellus, intravenous, read-out: Intravenous dose reducing histamine and 5-hydroxytryptamine bronchoconstriction
# Experimental: as §1
# (§2) In cats, the effects of the ganglion stimulant McNeil -A-343 and histamine were reduced. Following intravenous injection into guinea-pigs, […] reduced histamine and 5-hydroxytryptamine induced broncho-constriction. Concentrations of 1 μg/ml or greater relaxed the isolated rat uterus in vitro.
# (§3) The compound of Example 4 when injected into rats at intravenous doses of 0.3 mg/kg or greater reduced the pressor effects of 5-hydroxytryptamine and also the depressor effects of histamine. In cats, the effect of histamine was reduced after these doses also.
# (§4) Thus doses of 1 mg/kg given intraperitoneally attenuated the facilitation of spinal reflex activity caused by p-chloroamphetamine, and also the facilitation of spinal reflexes induced by fenfluramine in spinal and decerebrate rats. […] The drug in doses of 10 and 20 mg/kg intraperitoneally and in doses of 20 mg/kg by mouth attenuated morphine-induced catalepsy. We conclude therefore that this drug is an orally active drug with central actions, particularly affecting serotonergic mechanisms, but has no effect in vitro (Table 1). […] Thus it was found after intravenous doses of 0.03 mg/kg to reduce histamine and 5-hydroxytryptamine bronchoconstriction in the guinea pig.
# [3] = Penetration into the central nervous system; assay type: in vivo; conditions: for Ability to penetrate into the CNS: in vivo
# [4] = test system: arterial blood pressure and heart rate; assay: Arterial blood pressure, heart rate and pressor responses to noradrenaline, sympathetic nerve stimulation and tyramine after intravenous injection into cats; assay type: in vivo, cat
# [5] = test system: pressor effects of 5-hydroxytryptamine; assay: Pressor effects of 5-hydroxytryptamine in rats; assay type: in vivo, rat
# Experimental: as §1, §2, §3
# [6] = test system: depressor effects of histamine; assay: Effects of histamine in cats; assay type: in vivo, cat; conditions: intravenous
# Experimental: as §1, §2, §3
# [7] = test system: isolated guinea pig ileum (carbachol-induced contractions); assay: Block of carbachol-induced contraction of the isolated guinea-pig ileum; conditions: block of contractions of isolated guinea pig ileum induced by carbachol
# Experimental: (§5) Compounds according to formula I were tested for their ability to block contractions of the isolated guinea pig ileum induced by KCl, carbachol, or histamine at a concentration of 10^-7 M. Ileum preparations were prepared according to standard methodology. The concentrations shown are the minimum required to show activity.
# [8] = test system: isolated guinea pig ileum (histamine-induced contractions); assay: Block of histamine-induced contraction of the isolated guinea-pig ileum; conditions: for minimal effective concentration: Cavia porcellus, isolated guinea pig ileum, histamine 10^-7 M, read-out: Effect on Histamine: minimum concentration required to show activity; for Effect on Histamine: block of contractions of isolated guinea pig ileum induced by histamine at 10^-7 M
# Experimental: as §1, §5
# [9] = test system: 5-HT3 receptors (Bezold-Jarisch reflex); assay: Bradycardia and depressor response (Bezold-Jarisch reflex) to 5-hydroxytryptamine in anaesthetised rats; assay type: in vivo, rat; conditions: doses slightly higher than 0.3-1.0 mg/kg i.v.
# Experimental: as §1
# [10] = test system: arterial blood pressure and heart rate; assay: Arterial blood pressure, heart rate and pressor responses to noradrenaline, sympathetic nerve stimulation and tyramine after intravenous injection into rats; assay type: in vivo, rat; conditions: for minimal effective dose: intravenous
# [11] = test system: central nervous system (morphine induced catalepsy); assay: Morphine induced catalepsy in the rat; assay type: in vivo; conditions: for Action in morphine induced catalepsy test: rat, mianserin in low doses
# Experimental: as §4
# [12] = test system: pressor effects of 5-hydroxytryptamine; assay: Pressor effects of 5-hydroxytryptamine in cats; assay type: in vivo, cat; conditions: intravenous 0.1 mg/kg or greater
# Experimental: as §1
# [13] = test system: central nervous system (spinal flexor reflex); assay: Spinal flexor reflex in the rat; assay type: in vivo; conditions: mianserin in low doses
# [14] = test system: conscious cats; assay: Behavioural changes and acute toxicity in the cat; assay type: in vivo
# [15] = test system: central nervous system (L-5-hydroxytryptophan-induced head twitch); assay: L-5-hydroxytryptophan-induced head twitch in the mouse; assay type: in vivo; conditions: mianserin in low doses
# [16] = test system: diarrhoea caused by L-5-hydroxytryptophan; assay: Diarrhoea caused by L-5-hydroxytryptophan in mice; assay type: in vivo, mouse
# Experimental: as §1
# [17] = test system: depressor effects of histamine; assay: Depressor effects of histamine in rats; assay type: in vivo, rat; conditions: intravenous 0.1 mg/kg or greater
# Experimental: as §1, §3
# [18] = test system: rat paw oedema caused by 5-hydroxytryptamine; assay: Oedema in the rat paw caused by intraplantar 5-hydroxytryptamine; assay type: in vivo
# Experimental: as §1
# [19] = test system: isolated guinea pig ileum (KCl-induced contractions); assay: Block of KCl-induced contraction of the isolated guinea-pig ileum; conditions: block of contractions of isolated guinea pig ileum induced by KCl
# Experimental: as §5
# [20] = test system: effects of the ganglion stimulant McNeil -A-343; assay: Effects of the ganglion stimulant McNeil-A-343 in cats; assay type: in vivo, cat
# Experimental: as §2
# [21] = test system: isolated rat uterus; assay: Isolated rat uterus in vitro; conditions: Rattus norvegicus, read-out: Concentration relaxing the isolated rat uterus
# [22] = test system: spinal reflex activity (serotonergic mechanisms); assay: Facilitation of spinal reflexes by p-chloroamphetamine, fenfluramine or clonidine in spinal and decerebrate rats; assay type: in vivo, rat
# Experimental: as §4
# [23] = test system: effects of histamine and 5-hydroxytryptamine on blood pressure and heart rate; assay: Effects of histamine and 5-hydroxytryptamine on blood pressure and heart rate in the chloral-anaesthetized rat; assay type: in vivo
# [24] = intravenous 0.1 mg/kg or greater
# [25] = rats, intravenous 0.1 mg/kg or greater
smiles,measurement,setting,value
"N=C(N)N1CCN2c3ccccc3Cc3ccccc3C2C1 (centres unmarked) [Example 2, 2-Carboxamidino-1,2,3,4,10,14b-hexahydrodibenzo [c,f]pyrazino[1,2-a]azepineHydrochloride]",Contractions of rat isolated stomach strip caused by 5-hydroxytryptamine,[1]; low concentrations,inhibit
same,Nature of the antagonism to 5-hydroxytryptamine,"[1]; rat isolated stomach strip, relatively resistant to washing",persistent and non-competitive
same,minimal effective dose,[2],≥ 0.03 mg/kg
same,Penetration into the central nervous system,[3]; concluded from four CNS test situations,does not penetrate into the central nervous system
same,minimal effective dose,"[4]; Felis catus, intravenous, read-out: Intravenous dose causing long-lasting rises in arterial blood pressure and heart rate",≥ 0.1 mg/kg
same,Pressor responses of the indirectly acting sympathomimetic agent tyramine,[4]; [24],blockade
same,Pressor responses to noradrenaline and sympathetic nerve stimulation,[4]; [24],potentiation
same,Duration of block of the pressor effects of 5-hydroxytryptamine,[5]; [25],over 30 minutes
same,Effects of histamine (depressor) in cats,[6],blocked
same,Effect on Carbachol,[7],- (no effect)
same,minimal effective concentration,[8],0.01 µM
same,Effect on Histamine,[8],++
same,Nature of the antagonism to histamine,"[8]; guinea-pig isolated ileum, relatively resistant to washing",persistent and non-competitive
same,Contractions of the guinea-pig isolated ileum caused by histamine,[8]; low concentrations,inhibit
same,Bradycardia and depressor response (Bezold-Jarisch reflex) to 5-hydroxytryptamine,[9],reduced
same,minimal effective dose,"[10]; Rattus norvegicus, rats, read-out: Intravenous dose causing long-lasting rises in arterial blood pressure and heart rate",≥ 0.1 mg/kg
same,Pressor responses of the indirectly acting sympathomimetic agent tyramine,[10]; [25],blockade
same,Pressor responses to noradrenaline and sympathetic nerve stimulation,[10]; [25],potentiation
same,Action in morphine induced catalepsy test,[11],failed to demonstrate any inhibitory or other actions
same,Duration of block of the pressor effects of 5-hydroxytryptamine,[12],over 30 minutes
same,Action in spinal flexor reflex test,[13],failed to demonstrate any inhibitory or other actions
same,Action on the central nervous system: behavioural changes in the cat,[14]; cat,failed to demonstrate any inhibitory or other actions
same,Overt behavioural changes or acute toxicity,"[14]; conscious cats, relatively large subcutaneous doses",No overt behavioural changes or acute toxicity
same,Action in L-5-hydroxytryptophan-induced head twitch test,[15],failed to demonstrate any inhibitory or other actions
same,Diarrhoea caused by L-5-hydroxytryptophan,[16],inhibited
same,Depressor effects of histamine,[17],blocked
same,Oedema in the rat paw caused by intraplantar 5-hydroxytryptamine,[18]; oral and subcutaneous,inhibited
same,Oral absorption indicated by ratio of oral to subcutaneous dose,[18]; rat paw oedema,relatively good oral absorption
"c1ccc2c(c1)Cc1ccccc1N1CCN(C3=NCCN3)CC21 (centres unmarked) [Example 3, 2-(2-Imidazolino)-1,2,3,4,10,14b-hexahydrodibenzo [c,f]pyrazino[1,2-a]azepine p-toluenesulphonate]",Effect on KCl,[19],- (no effect)
same,minimal effective dose,[2],0.01 mg/kg
same,Effects of the ganglion stimulant McNeil -A-343,[20],reduced
same,minimal effective dose,"[5]; rat, intravenous, read-out: Intravenous dose depressing/reducing the pressor responses to 5-hydroxytryptamine",≥ 0.1 mg/kg
same,Effects of histamine (depressor) in cats,[6],reduced
same,Effect on Carbachol,[7],- (no effect)
same,minimal effective concentration,[8],0.01 µM
same,Effect on Histamine,[8],++
same,minimal effective dose,"[10]; rat, read-out: Intravenous dose causing rises in arterial blood pressure",≥ 0.1 mg/kg
same,minimal effective concentration,[21],≥ 1 µg/mL
"NC(=O)N1CCN2c3ccccc3Cc3ccccc3C2C1 (centres unmarked) [Example 5, 2-Carboxamido-1,2,3,4,10,14b-hexahydrodibenzo [c,f]pyrazino[1,2-a]azepine]",Effect on KCl,[19],- (no effect)
same,minimal effective dose,[2],0.03 mg/kg
same,Effect on Carbachol,[7],- (no effect)
same,minimal effective concentration,[8],0.01 to 0.1 µM
same,Effect on Histamine,[8],++
same,Facilitation of spinal reflex activity caused by p-chloroamphetamine,[22]; 1 mg/kg intraperitoneally,attenuated
same,Facilitation of spinal reflexes induced by fenfluramine,"[22]; 1 mg/kg intraperitoneally, spinal and decerebrate rats",attenuated
same,Facilitation of spinal reflexes caused by clonidine,[22]; at these dose levels (1 mg/kg intraperitoneally),did not antagonise
same,Morphine-induced catalepsy,[11]; 20 mg/kg by mouth,attenuated
same,Morphine-induced catalepsy,[11]; 10 and 20 mg/kg intraperitoneally,attenuated
"CCNC(=NC#N)N1CCN2c3ccccc3Cc3ccccc3C2C1 (centres unmarked) [Example 7, 2-(N-Cyano-N'-ethyl-carboxamidino)-1,2,3,4,10,14b-hexahydrodibenzo[c,f]pyrazino[1,2-a]azepine]",Effect on KCl,[19],- (no effect)
same,Effect on Carbachol,[7],- (no effect)
same,minimal effective concentration,[8],0.01 to 0.1 µM
same,Effect on Histamine,[8],++
"N=C(NCCOc1ccccc1)N1CCN2c3ccccc3Cc3ccccc3C2C1 (centres unmarked) [Example 9, 2-(N-2-Phenoxyethylcarboxamidino)-1,2,3,4,10,14b-hexahydrodibenzo[c,f]pyrazino[1,2-a]azepine hydrochloride]",Effect on KCl,[19],- (no effect)
same,Effect on Carbachol,[7],- (no effect)
same,minimal effective concentration,[8],0.01 to 0.1 µM
same,Effect on Histamine,[8],++
"CCNC(=O)N1CCN2c3ccccc3Cc3ccccc3C2C1 (centres unmarked) [Example 10, 2-(N-Ethylcarboxamido)-1,2,3,4,10,14b-hexahydrodibenzo[c,f]pyrazino[1,2-a]azepine]",Effect on KCl,[19],- (no effect)
same,Effect on Carbachol,[7],- (no effect)
same,minimal effective concentration,[8],0.1 µM
same,Effect on Histamine,[8],+ (block)
"CCNC(=N)N1CCN2c3ccccc3Cc3ccccc3C2C1 (centres unmarked) [Example 11, 2-(N-Ethylcarboxamidino)-1,2,3,4,10,14b-hexahydrodibenzo[c,f]pyrazino[1,2-a]azepine hydrochloride]",Effect on KCl,[19],- (no effect)
same,Effect on Carbachol,[7],- (no effect)
same,minimal effective concentration,[8],0.01 to 0.1 µM
same,Effect on Histamine,[8],++
same,Block of effect on heart rate of both histamine and 5-hydroxytryptamine,[23],not
same,Effect on blood pressure of both histamine and 5-hydroxytryptamine,[23],complete block
"CCNC(=S)N1CCN2c3ccccc3Cc3ccccc3C2C1 (centres unmarked) [Example 12, 2-(N-Ethylthiocarboxamido)-1,2,3,4,10,14b-hexahydrodibenzo[c,f]pyrazino[1,2-a]azepine]",Effect on KCl,[19],- (no effect)
same,Effect on Carbachol,[7],- (no effect)
same,minimal effective concentration,[8],0.01 to 0.1 µM
same,Effect on Histamine,[8],++
"NC(=O)CN1CCN2c3ccccc3Cc3ccccc3C2C1 (centres unmarked) [Example 13, 2-(Carboxamidomethyl)-1,2,3,4,10,14b-hexahydrodibenzo [c,f]pyrazino[1,2-a]azepine hydrochloride]",Effect on KCl,[19],- (no effect)
same,Ability to penetrate into the CNS,[3],able to penetrate into the CNS
same,Effect on Carbachol,[7],- (no effect)
same,minimal effective concentration,[8],0.01 to 0.1 µM
same,Effect on Histamine,[8],++
"NC(=O)CCN1CCN2c3ccccc3Cc3ccccc3C2C1 (centres unmarked) [Example 14, 2-(2-Carboxamidoethyl)-1,2,3,4,10,14b-hexahydrodibenzo[c,f]pyrazino[1,2-a]azepine]",Effect on KCl,[19],- (no effect)
same,Ability to penetrate into the CNS,[3],able to penetrate into the CNS
same,Effect on Carbachol,[7],- (no effect)
same,minimal effective concentration,[8],0.01 to 0.1 µM
same,Effect on Histamine,[8],++
"CN1CCN2c3ccccc3Cc3ccccc3C2C1 (centres unmarked) [mianserin, 1,2,3,4,10,14b-hexahydro-2-methyldibenzo [c,f]pyrazino[1,2-a]azepine, reference compound]",Action in morphine induced catalepsy test,[11],effective
same,Action in spinal flexor reflex test,[13],effective
same,Action in L-5-hydroxytryptophan-induced head twitch test,[15],effective
